Test results: PubChem BioAssay (NCI)
Several values for one entry are separate records, joined by “and”; a condition that tells them apart may be missing. Equal entries are not always repeated.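 Exposure lasted 48 hours, with cells grown in 96-well plates and compounds tested at five concentrations. The concentration for 50% growth inhibition is given as GI50. TGI denotes the concentration required for complete inhibition of growth.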

Tested on: NCI-H23 lung
Assay: inhibition of tumour cell growth, NCI panel, 48 h

Structure (SMILES)	TGI	GI50
COC1(OC)CC2C(=O)N(Cc3ccccc3)C1C(S(=O)(=O)c1ccccc1)C2S(=O)(=O)c1ccccc1 (stereo unspecified)	28.1 µM	
Cc1cc(CC(O)c2ccc(Cl)c(Cl)c2)nc(=O)[nH]1 (stereo unspecified)	> 100 µM	
CC(C)c1ccccc1NC(=O)CCc1n[nH]c(=S)o1	> 100 µM	
CCCCC(C(=O)C(=O)NC1C2CC3CC(C2)CC1C3)C(=O)C(C)C (stereo unspecified)	> 100 µM	
COC(=O)c1cc2c(s1)C(=O)c1ccccc1-2	> 100 µM	
Cn1c2c(c3ccccc31)C1CCCCCCC1C1C(=O)OC(=O)C21 (stereo unspecified)	> 100 µM	
Cc1ccc(S(=O)(=O)N(CC(=O)O)c2ccccc2)cc1	> 100 µM	
COc1ccc(C(=O)C(c2ccc(OC)cc2)C2(O)C(=O)Nc3ccc([N+](=O)[O-])cc32)cc1 (stereo unspecified)	> 100 µM	
O=C(/C=C/c1ccccc1O)c1ccccc1O	> 100 µM	
CCn1c(-c2nonc2N)nc2c(C#CC(C)(C)O)nc(OC[C@H](N)c3ccccc3)cc21	12.4 µM	5.21 µM
O=C1/C(=C/c2ccc(Br)cc2)COc2ccc(O)c(O)c21	3.65 µM	1.62 µM
N#Cc1c(NN)n(C2OC(CO)C(O)C2O)c2ncnc(N)c12 (stereo unspecified)	2.47 µM	0.218 µM
CCCCCCNC(=O)c1cc(NCc2cc(O)ccc2O)ccc1O	33.1 µM	13.1 µM
N#CC(N)(C(=O)CCC(=O)Nc1cccc(Cl)c1)c1ccc(Cl)cc1 (stereo unspecified)	> 100 µM	
CC(CCC=O)CCOCc1ccccc1 (stereo unspecified)	> 100 µM	
O=C(Nc1nc2ccc(C(F)(F)F)cc2s1)c1cc(Cl)ccc1O	9.53 µM	0.367 µM
S=C(Nc1ccccc1)N(/N=C/C=C/c1ccccc1)c1nnc(-c2ccccc2)c(-c2ccccc2)n1	> 100 µM	
COc1ccc2c(c1)CCCC(Br)C2=O (stereo unspecified)	26.3 µM	
COc1ccc(-n2cc(-c3cc(OC)c(OC)c(OC)c3)c(C(=O)C(F)(F)F)c2C)cc1	> 100 µM	8.53 µM
COc1cc(C2CC(c3cccc(Br)c3)=NN2C(C)=O)cc(OC)c1OC (stereo unspecified)	> 81.3 µM	1.66 µM
COc1cc(N(CCC#N)CCC#N)ccc1/C(N=Nc1ccc([N+](=O)[O-])cc1)=N/NC(=O)c1cc(Br)ccc1O	> 150 µg/mL	51.2 µg/mL
CS(=O)(=O)Nc1ccc2c(c1)oc(=O)c1ccccc12	> 100 µM	

Tested on: NCI-H460 lung
Assay: inhibition of tumour cell growth, NCI panel, 48 h

Structure (SMILES)	TGI
CC(C)N(C(=O)C12C3C4C5(C#N)C3C1(C#N)C5C42I)C(C)C (stereo unspecified)	> 100 µM
C=COCCCOc1ccccc1	> 100 µM
COc1ccc2c3c([nH]c2c1[N+](=O)[O-])C(C)=NCC3	> 100 µM
C=C(c1nc2ccc(Cl)cc2[nH]c1=O)C(O)c1ccc(C(O)C(=O)c2nc3ccc(Cl)cc3[nH]c2=O)cc1 (stereo unspecified)	> 100 µM
CC(C)(C)CC(C)(C)c1cc2c(O)c(c1)Cc1cc(C(C)(C)CC(C)(C)C)cc(c1O)Cc1cc(C(C)(C)CC(C)(C)C)cc(c1O)Cc1cc(C(C)(C)CC(C)(C)C)cc(c1O)C2	> 100 µM
CC1=C(C(=O)Nc2ccccc2)C(c2ccccc2)C(C(=O)Nc2ccccc2)=C(C)N1	> 100 µM
Cc1nn(-c2ccccc2)c2nc(N3CCOCC3)nnc12	> 100 µM
CNC(=O)N(C)N=NCCCl	> 100 µM
CCOc1ccccc1C=C1c2ccccc2C(=O)c2ccccc21	31.9 µM
O=C(CCn1[nH]c(=O)c(Cl)c(Cl)c1=O)NO	> 100 µM
[N-]=[N+]=NC12CC3C4CC5CC3C(C1)C(C5)C4C2	> 100 µM
CN(C)c1nc2ccccc2[nH]1	> 100 µM
NNC(=S)N/N=C(\CC1OC(=O)c2ccccc21)c1ccccc1O (stereo unspecified)	> 100 µM
COC(=O)C1=C(O)c2cc(OC)c(OC)cc2C(c2ccc(OC)c(OC)c2)C1 (stereo unspecified)	> 100 µM
O=C1c2cccc(NCCCNCCO)c2C(=O)c2cccc(NCCCNCCO)c21	4 µM and 4.23 µM
COC1(OC)CC2C(=O)N(Cc3ccccc3)C1C(S(=O)(=O)c1ccccc1)C2S(=O)(=O)c1ccccc1 (stereo unspecified)	82.7 µM
Cc1cc(CC(O)c2ccc(Cl)c(Cl)c2)nc(=O)[nH]1 (stereo unspecified)	> 100 µM
COC(=O)C(=Cc1cc(OC)ccc1OC)C(=O)OC	91.6 µM
CC1=NNC(=O)C2CCC(=O)N12 (stereo unspecified)	> 100 µM
CC(C)c1ccccc1NC(=O)CCc1n[nH]c(=S)o1	> 80.1 µM
CCCCC(C(=O)C(=O)NC1C2CC3CC(C2)CC1C3)C(=O)C(C)C (stereo unspecified)	> 100 µM
